Measurements as given in ChEMBL document CHEMBL3232869, “Anti-inflammatory components of Euphorbia humifusa Willd” (Bioorg Med Chem Lett, 2014).
Active and inactive are the calls of the source. The calls are words filed in the database; no cut-off is given here.

Key:
RAW264.7 [1] = test: Antiinflammatory activity in mouse RAW264.7 cells assessed as inhibition of LPS-induced TNF-alpha secretion at 10 uM after 18 hrs by sandwich ELISA; assay type: functional; conditions: for inhibition at 10 µM: RAW264.7, 18 h
[2] = molecular target: T1, Bifunctional epoxide hydrolase 2 (Homo sapiens) (UniProt P34913); test: Inhibition of sEH (unknown origin) assessed as substrate PHOME hydrolysis at 25 uM after 1 hr by fluorescence method
T1 sequence (whole entry): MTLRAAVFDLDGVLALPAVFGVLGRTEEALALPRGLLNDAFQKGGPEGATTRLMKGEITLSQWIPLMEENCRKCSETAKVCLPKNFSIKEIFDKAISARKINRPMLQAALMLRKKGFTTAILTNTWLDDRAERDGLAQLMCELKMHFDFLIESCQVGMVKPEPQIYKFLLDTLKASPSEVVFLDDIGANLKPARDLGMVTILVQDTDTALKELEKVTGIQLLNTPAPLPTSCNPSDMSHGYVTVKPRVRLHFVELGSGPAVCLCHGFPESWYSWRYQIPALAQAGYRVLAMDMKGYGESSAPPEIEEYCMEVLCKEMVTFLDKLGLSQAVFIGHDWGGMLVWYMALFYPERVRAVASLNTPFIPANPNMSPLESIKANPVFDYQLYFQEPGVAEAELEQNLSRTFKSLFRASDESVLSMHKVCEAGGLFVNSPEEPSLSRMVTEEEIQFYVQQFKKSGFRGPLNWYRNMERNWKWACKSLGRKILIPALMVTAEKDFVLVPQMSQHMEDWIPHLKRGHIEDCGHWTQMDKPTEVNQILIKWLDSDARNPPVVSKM

[3] = molecular target: T2, Bifunctional epoxide hydrolase 2 (Homo sapiens, UniProt P34913); test: Inhibition of sEH (unknown origin) assessed as substrate PHOME hydrolysis after 1 hr by fluorescence method
T2 sequence (P34913 whole entry): T1 sequence (whole entry)

RAW264.7 [4] = test: Antiinflammatory activity in mouse RAW264.7 cells assessed as inhibition of LPS-induced nitric oxide production at 10 uM after 18 hrs by griess reaction analysis; assay type: functional
RAW264.7 [5] = test: Antiinflammatory activity in mouse RAW264.7 cells assessed as inhibition of LPS-induced TNF-alpha secretion at 0.4 uM after 18 hrs by sandwich ELISA; assay type: functional, cell-based
RAW264.7 [6] = test: Antiinflammatory activity in mouse RAW264.7 cells assessed as inhibition of LPS-induced TNF-alpha secretion after 18 hrs by sandwich ELISA; assay type: functional, cell-based; conditions: RAW264.7, 18 h
RAW264.7 [7] = test: Cytotoxicity against mouse RAW264.7 cells assessed as cell viability at 50 uM after 18 hrs by MTT assay in presence of LPS; assay type: cell-based; conditions: raw264.7, 18 h
RAW264.7 [8] = test: Antiinflammatory activity in mouse RAW264.7 cells assessed as inhibition of LPS-induced nitric oxide production at 0.4 uM after 18 hrs by griess reaction analysis; assay type: functional, cell-based
RAW264.7 [9] = test: Antiinflammatory activity in mouse RAW264.7 cells assessed as inhibition of LPS-induced nitric oxide production after 18 hrs by griess reaction analysis; assay type: functional, cell-based; conditions: RAW264.7, 18 h

C[C@@H]1O[C@@H](Oc2c(-c3ccc(O)c(O)c3)oc3cc(O)cc(O)c3c2=O)[C@H](OC(=O)c2cc(O)c(O)c(O)c2)[C@H](O)[C@H]1O
inhibition (RAW264.7 [1]): Active | inhibition [2]: > 40% | IC50 [3]: 18.6 µM | inhibition (RAW264.7 [4]): inactive | inhibition (RAW264.7 [5]): inactive | IC50 (RAW264.7 [6]): 26.1 µM | Activity (RAW264.7 [7]): Non-toxic | inhibition (RAW264.7 [8]): inactive

COC/C=C/c1ccc(O[C@@H]2O[C@H](CO)[C@@H](O)[C@H](O)[C@H]2O)c(OC)c1
inhibition at 10 µM (RAW264.7 [1]): 21.5% | inhibition [2]: < 40% | inhibition at 10 µM (RAW264.7 [4]; RAW264.7, 18 h): 32.9% | inhibition (RAW264.7 [5]): inactive | IC50 (RAW264.7 [6]): 16.5 µM | Activity (RAW264.7 [7]): Non-toxic | IC50 (RAW264.7 [9]): 19.1 µM | inhibition (RAW264.7 [8]): inactive

O=C1C[C@H](C(=O)O)c2c1oc(=O)c1cc(O)c(O)c(O)c21
inhibition (RAW264.7 [1]): Active | inhibition [2]: > 40% | IC50 [3]: 47.4 µM | inhibition (RAW264.7 [4]): inactive | inhibition (RAW264.7 [5]): inactive | IC50 (RAW264.7 [6]): 21.3 µM | Activity (RAW264.7 [7]): Non-toxic | IC50 (RAW264.7 [9]): 41.2 µM | inhibition (RAW264.7 [8]): inactive

COc1cc(/C=C/CO)cc(OC)c1O[C@@H]1O[C@H](CO)[C@@H](O)[C@H](O)[C@H]1O [SYRINGIN]
inhibition (RAW264.7 [1]): Active | inhibition [2]: < 40% | inhibition (RAW264.7 [4]): Active | inhibition (RAW264.7 [5]): inactive | IC50 (RAW264.7 [6]): 34.9 µM | Activity (RAW264.7 [7]): Non-toxic | IC50 (RAW264.7 [9]): 24 µM | inhibition (RAW264.7 [8]): inactive

OC[C@H]1O[C@@H](OCc2ccccc2)[C@H](O)[C@@H]1O
inhibition at 10 µM (RAW264.7 [1]): 21.5% | inhibition (RAW264.7 [4]): Active | inhibition (RAW264.7 [5]): inactive | IC50 (RAW264.7 [6]): 18.4 µM | Activity (RAW264.7 [7]): Non-toxic | IC50 (RAW264.7 [9]): 24.5 µM | inhibition (RAW264.7 [8]): inactive

O=C(CCc1ccc(O)cc1)c1c(O)cc(O)cc1O[C@@H]1O[C@H](CO)[C@@H](O)[C@H](O)[C@H]1O [PHLORIZIN]
inhibition at 10 µM (RAW264.7 [1]): 21.5% | inhibition [2]: > 40% | IC50 [3]: 41.7 µM | inhibition (RAW264.7 [4]): inactive | inhibition (RAW264.7 [5]): inactive | IC50 (RAW264.7 [6]): 14.4 µM | Activity (RAW264.7 [7]): Non-toxic | inhibition (RAW264.7 [8]): inactive

COC/C=C/c1ccc(O[C@@H](CO)CO[C@@H]2O[C@H](CO)[C@@H](O)[C@H](O)[C@H]2O)c(OC)c1
inhibition (RAW264.7 [1]): Active | inhibition [2]: < 40% | inhibition (RAW264.7 [4]): Active | inhibition (RAW264.7 [5]): inactive | IC50 (RAW264.7 [6]): 27.2 µM | Activity (RAW264.7 [7]): Non-toxic | IC50 (RAW264.7 [9]): 28.6 µM | inhibition (RAW264.7 [8]): inactive

CC1=CC[C@@H](C(C)(C)O[C@@H]2O[C@H](CO[C@@H]3OC[C@H](O)[C@H](O)[C@H]3O)[C@@H](O)[C@H](O)[C@H]2O)CC1
inhibition (RAW264.7 [1]): Active | inhibition [2]: < 40% | inhibition (RAW264.7 [4]): Active | inhibition (RAW264.7 [5]): inactive | IC50 (RAW264.7 [6]): > 50 µM | Activity (RAW264.7 [7]): Non-toxic | inhibition (RAW264.7 [8]): inactive

O=C(O[C@@H]1O[C@@H]2COC(=O)c3cc(O)c(O)c(O)c3-c3c(cc(O)c(O)c3O)C(=O)O[C@H]([C@H]1O)[C@@H]2O)c1cc(O)c(O)c(O)c1 [CORILAGIN]
inhibition (RAW264.7 [1]): Active | inhibition [2]: > 40% | inhibition (RAW264.7 [4]): Active | inhibition (RAW264.7 [5]): inactive | IC50 (RAW264.7 [6]): 38.5 µM | Activity (RAW264.7 [7]): Non-toxic | IC50 (RAW264.7 [9]): 25.1 µM | inhibition (RAW264.7 [8]): inactive

O=C(O[C@H]1[C@H](Oc2c(-c3ccc(O)cc3)oc3cc(O)cc(O)c3c2=O)O[C@H](CO)[C@@H](O)[C@@H]1O)c1cc(O)c(O)c(O)c1
inhibition at 10 µM (RAW264.7 [1]): 21.5% | inhibition [2]: > 40% | IC50 [3]: 27.4 µM | inhibition (RAW264.7 [4]): inactive | inhibition (RAW264.7 [5]): inactive | IC50 (RAW264.7 [6]): 17.2 µM | Activity (RAW264.7 [7]): Non-toxic | inhibition (RAW264.7 [8]): inactive

O=c1c(O[C@@H]2O[C@H](CO)[C@@H](O)[C@H](O)[C@H]2O)c(-c2cc(O)c(O)c(O)c2)oc2cc(O)cc(O)c12
inhibition (RAW264.7 [1]): Active | inhibition [2]: > 40% | IC50 [3]: 17.2 µM | inhibition (RAW264.7 [4]): Active | inhibition (RAW264.7 [5]): inactive | Activity (RAW264.7 [7]): Non-toxic | IC50 (RAW264.7 [9]): 21.2 µM | inhibition (RAW264.7 [8]): inactive

O=c1c(O[C@@H]2O[C@H](CO)[C@@H](O)[C@H](O)[C@H]2O)c(-c2ccc(O)cc2)oc2cc(O)cc(O)c12 [ASTRAGALIN]
inhibition (RAW264.7 [1]): Active | inhibition [2]: > 40% | IC50 [3]: > 50 µM | inhibition (RAW264.7 [4]): inactive | inhibition (RAW264.7 [5]): inactive | IC50 (RAW264.7 [6]): 40.6 µM | Activity (RAW264.7 [7]): Non-toxic | IC50 (RAW264.7 [9]): 37.1 µM | inhibition (RAW264.7 [8]): inactive
